Test results as given in the supplement of paper PMC11451515.

Tests used:
Conditions in all cases: 48 h
NOMO1 [1] = test: cell viability relative to DMSO control; higher = less cytotoxic
Summary of the method: (§1)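 Cells were incubated for 48 h at 37°C before CellTiter-Glo One luminescence was read. The cells were NOMO1 or SEM (500 cells/well) or P12-Ichikawa (1000 cells/well) leukemia cells, adapted for at least four passages in each medium and seeded in 1536-well plates (5 μl). Dosing used library compounds in DMSO applied by pin over 11 threefold points, 47 μM to 0.79 nM. Viability is the per-plate percentage of DMSO wells, with cell-free wells as background.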

SEM cells [2] = test: as above
Summary of the method: as §1

P12-Ichikawa [3] = test: as above
Summary of the method: as §1

NOMO1 [4] = test: AUC of viability dose-response curve (% viability x log10 dose units); higher = less sensitive
Summary of the method: (§2)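 Library compounds in DMSO were applied for 48 h at 37°C at 11 threefold doses (47 μM to 0.79 nM) to medium-adapted leukemia cells in 1536-well plates holding 500 or 1000 cells/well. Luminescence from CellTiter-Glo One was normalised plate by plate against DMSO and cell-free wells. Area under the curve came from trapezoidal integration of a log-logistic fit, after scaling curves that rose above full viability and discarding those that failed quality control. The fit had four parameters and used log10 doses.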

SEM cells [5] = test: as above
Summary of the method: as §2

P12-Ichikawa [6] = test: as above
Summary of the method: as §2

C[C@@H]1CC[C@@]2(OC1)O[C@H]3C[C@H]4[C@@H]5C/C=C6/C[C@H](CC[C@]6(C)[C@H]5CC[C@]4(C)[C@H]3[C@@H]2C)O[C@@H]7O[C@H](CO)[C@@H](O[C@@H]8O[C@@H](C)[C@H](O)[C@@H](O)[C@H]8O)[C@H](O)[C@H]7O[C@@H]9O[C@@H](C)[C@H](O)[C@@H](O)[C@H]9O
cell viability [%]
Conditions	NOMO1 [1]	P12-Ichikawa [3]	SEM cells [2]
HPLM + 10% dialyzed FBS, 0.000781 µM	108	124	92.6
HPLM + 10% dialyzed FBS, 0.00234 µM	122	128	79.3
HPLM + 10% dialyzed FBS, 0.00702 µM	122	119	97.5
HPLM + 10% dialyzed FBS, 0.0211 µM	127	131	110
HPLM + 10% dialyzed FBS, 0.0632 µM	142	129	114
HPLM + 10% dialyzed FBS, 0.19 µM	136	130	117
HPLM + 10% dialyzed FBS, 0.569 µM	141	136	118
HPLM + 10% dialyzed FBS, 1.71 µM	152	134	115
HPLM + 10% dialyzed FBS, 5.12 µM	132	132	111
HPLM + 10% dialyzed FBS, 15.4 µM	124	116	73.9
HPLM + 10% dialyzed FBS, 46.1 µM	8.71	7.3	8.36
RPMI 5 mM glucose + 10% dialyzed FBS, 0.000781 µM	–	–	110
RPMI 5 mM glucose + 10% dialyzed FBS, 0.00234 µM	–	–	116
RPMI 5 mM glucose + 10% dialyzed FBS, 0.00702 µM	–	–	114
RPMI 5 mM glucose + 10% dialyzed FBS, 0.0211 µM	–	–	116
RPMI 5 mM glucose + 10% dialyzed FBS, 0.0632 µM	–	–	139
RPMI 5 mM glucose + 10% dialyzed FBS, 0.19 µM	–	–	104
RPMI 5 mM glucose + 10% dialyzed FBS, 0.569 µM	–	–	122
RPMI 5 mM glucose + 10% dialyzed FBS, 1.71 µM	–	–	119
RPMI 5 mM glucose + 10% dialyzed FBS, 5.12 µM	–	–	119
RPMI 5 mM glucose + 10% dialyzed FBS, 15.4 µM	–	–	55
RPMI 5 mM glucose + 10% dialyzed FBS, 46.1 µM	–	–	7.66

AUC of viability dose-response curve
Conditions	NOMO1 [4]	P12-Ichikawa [6]	SEM cells [5]
HPLM + 10% dialyzed FBS	452	450	440
RPMI 5 mM glucose + 10% FBS	453	452	431
RPMI 5 mM glucose + 10% dialyzed FBS	449	445	429

CC(C)(C)/[N+]([O-])=C/c1ccc([S+](=O)([O-])[O][Na])cc1[S+](=O)([O-])[O][Na]
cell viability [%]
Conditions	NOMO1 [1]	P12-Ichikawa [3]	SEM cells [2]
HPLM + 10% dialyzed FBS, 0.000781 µM	97.5	110	88.7
HPLM + 10% dialyzed FBS, 0.00234 µM	102	114	76.3
HPLM + 10% dialyzed FBS, 0.00702 µM	111	112	84.5
HPLM + 10% dialyzed FBS, 0.0211 µM	115	122	99.9
HPLM + 10% dialyzed FBS, 0.0632 µM	121	117	84.6
HPLM + 10% dialyzed FBS, 0.19 µM	132	131	98.6
HPLM + 10% dialyzed FBS, 0.569 µM	121	127	101
HPLM + 10% dialyzed FBS, 1.71 µM	128	125	90.3
HPLM + 10% dialyzed FBS, 5.12 µM	129	121	88.1
HPLM + 10% dialyzed FBS, 15.4 µM	119	119	99.2
HPLM + 10% dialyzed FBS, 46.1 µM	127	133	94.9
RPMI 5 mM glucose + 10% FBS, 0.000781 µM	105	108	115
RPMI 5 mM glucose + 10% FBS, 0.00234 µM	118	96.5	83.1
RPMI 5 mM glucose + 10% FBS, 0.00702 µM	119	108	86.9
RPMI 5 mM glucose + 10% FBS, 0.0211 µM	126	111	109
RPMI 5 mM glucose + 10% FBS, 0.0632 µM	125	120	105
RPMI 5 mM glucose + 10% FBS, 0.19 µM	118	123	124
RPMI 5 mM glucose + 10% FBS, 0.569 µM	125	127	110
RPMI 5 mM glucose + 10% FBS, 1.71 µM	128	122	108
RPMI 5 mM glucose + 10% FBS, 5.12 µM	111	126	116
RPMI 5 mM glucose + 10% FBS, 15.4 µM	138	124	91.2
RPMI 5 mM glucose + 10% FBS, 46.1 µM	133	122	108
RPMI 5 mM glucose + 10% dialyzed FBS, 0.000781 µM	94	108	95.7
RPMI 5 mM glucose + 10% dialyzed FBS, 0.00234 µM	102	114	105
RPMI 5 mM glucose + 10% dialyzed FBS, 0.00702 µM	111	114	102
RPMI 5 mM glucose + 10% dialyzed FBS, 0.0211 µM	114	121	94.1
RPMI 5 mM glucose + 10% dialyzed FBS, 0.0632 µM	111	113	98.8
RPMI 5 mM glucose + 10% dialyzed FBS, 0.19 µM	120	120	120
RPMI 5 mM glucose + 10% dialyzed FBS, 0.569 µM	127	124	117
RPMI 5 mM glucose + 10% dialyzed FBS, 1.71 µM	109	123	104
RPMI 5 mM glucose + 10% dialyzed FBS, 5.12 µM	109	120	113
RPMI 5 mM glucose + 10% dialyzed FBS, 15.4 µM	123	119	105
RPMI 5 mM glucose + 10% dialyzed FBS, 46.1 µM	120	116	110

AUC of viability dose-response curve
Conditions	NOMO1 [4]	P12-Ichikawa [6]	SEM cells [5]
HPLM + 10% dialyzed FBS	451	461	438
RPMI 5 mM glucose + 10% FBS	445	451	461
RPMI 5 mM glucose + 10% dialyzed FBS	459	469	453
